Assay: Anticancer human tumor 997537-175-T-J1-PDC patient-derived colon adenocarcinoma cell line growth inhibition [POLQ]
Settings: 997537-175-T-J1-PDC complex spheroid viability, combination with POLQ inhibitors; for IC50: curve of first compound; for viability, T/C: stronger effect = lower value
Summary of the method: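 Patient-derived tumour cells were co-cultured with HUVEC and mesenchymal stem cells as multicellular spheroids at 37 °C. They were treated with POLQ inhibitors (novobiocin, ART-558, RP6685) alone or combined with other agents. Top concentrations were at or near clinical Cmax (otherwise 10 microM; SN-38 at 1 microM), decreasing in half-log steps.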

[1] = second compound 0.0316 µM, first compound 0.0316 µM
[2] = second compound 0.0316 µM, first compound 0.1 µM
[3] = second compound 0.0316 µM, first compound 0.316 µM
[4] = second compound 0.0316 µM, first compound 1 µM
[5] = second compound 0.0316 µM, first compound 3.16 µM
[6] = second compound 0.0316 µM, first compound 10 µM
[7] = second compound 0.1 µM, first compound 0.0316 µM
[8] = second compound 0.1 µM, first compound 0.1 µM
[9] = second compound 0.1 µM, first compound 0.316 µM
[10] = second compound 0.1 µM, first compound 1 µM
[11] = second compound 0.1 µM, first compound 3.16 µM
[12] = second compound 0.1 µM, first compound 10 µM
[13] = second compound 0.316 µM, first compound 0.0316 µM
[14] = second compound 0.316 µM, first compound 0.1 µM
[15] = second compound 0.316 µM, first compound 0.316 µM
[16] = second compound 0.316 µM, first compound 1 µM
[17] = second compound 0.316 µM, first compound 3.16 µM
[18] = second compound 0.316 µM, first compound 10 µM
[19] = second compound 1 µM, first compound 0.0316 µM
[20] = second compound 1 µM, first compound 0.1 µM
[21] = second compound 1 µM, first compound 0.316 µM
[22] = second compound 1 µM, first compound 1 µM
[23] = second compound 1 µM, first compound 3.16 µM
[24] = second compound 1 µM, first compound 10 µM
[25] = second compound 3.16 µM, first compound 0.0316 µM
[26] = second compound 3.16 µM, first compound 0.1 µM
[27] = second compound 3.16 µM, first compound 0.316 µM
[28] = second compound 3.16 µM, first compound 1 µM
[29] = second compound 3.16 µM, first compound 3.16 µM
[30] = second compound 3.16 µM, first compound 10 µM
[31] = second compound 10 µM, first compound 0.0316 µM
[32] = second compound 10 µM, first compound 0.1 µM
[33] = second compound 10 µM, first compound 0.316 µM
[34] = second compound 10 µM, first compound 1 µM
[35] = second compound 10 µM, first compound 3.16 µM
[36] = second compound 10 µM, first compound 10 µM
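Further: luminescence signal used as a surrogate for viable cells; spheroids exposed to drugs for seven days before readout.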

CCCS(=O)(=O)Nc1ccc(F)c(C(=O)c2c[nH]c3ncc(-c4ccc(Cl)cc4)cc23)c1F + COC1C(OC(N)=O)C(O)C(Oc2ccc3c(O)c(NC(=O)c4ccc(O)c(CC=C(C)C)c4)c(=O)oc3c2C)OC1(C)C
IC50 (second compound 0.0316 µM): 5.71 µM | IC50 (second compound 0.1 µM): 7.59 µM | IC50 (second compound 0.316 µM): 6.66 µM | IC50 (second compound 1 µM): 5.26 µM | IC50 (second compound 3.16 µM): 6.2 µM | IC50 (second compound 10 µM): 4.78 µM | viability, T/C [1]: 93.4% | viability, T/C [2]: 96% | viability, T/C [3]: 87.1% | viability, T/C [4]: 84.8% | viability, T/C [5]: 71.5% | viability, T/C [6]: 30.6% | viability, T/C [7]: 102% | viability, T/C [8]: 92.6% | viability, T/C [9]: 84.9% | viability, T/C [10]: 78% | viability, T/C [11]: 77% | viability, T/C [12]: 41.2% | viability, T/C [13]: 82.8% | viability, T/C [14]: 91.6% | viability, T/C [15]: 77.8% | viability, T/C [16]: 84.1% | viability, T/C [17]: 75% | viability, T/C [18]: 36.2% | viability, T/C [19]: 86.4% | viability, T/C [20]: 79.5% | viability, T/C [21]: 73.2% | viability, T/C [22]: 75.2% | viability, T/C [23]: 72.7% | viability, T/C [24]: 21.7% | viability, T/C [25]: 95.6% | viability, T/C [26]: 78.9% | viability, T/C [27]: 77.3% | viability, T/C [28]: 73.5% | viability, T/C [29]: 78% | viability, T/C [30]: 30.1% | viability, T/C [31]: 81.4% | viability, T/C [32]: 84% | viability, T/C [33]: 90.8% | viability, T/C [34]: 85.6% | viability, T/C [35]: 63.9% | viability, T/C [36]: 25.3%

CCc1cc2c(N3CCc4c(cc(Cn5ccnc5)cc4-c4cn(C)nc4C(F)(F)F)C3=O)cc(C)nc2c(OC)n1 + COC1C(OC(N)=O)C(O)C(Oc2ccc3c(O)c(NC(=O)c4ccc(O)c(CC=C(C)C)c4)c(=O)oc3c2C)OC1(C)C
IC50 (second compound 0.0316 µM): > 10 µM | IC50 (second compound 0.1 µM): 6.36 µM | IC50 (second compound 0.316 µM): > 10 µM | IC50 (second compound 1 µM): > 10 µM | IC50 (second compound 3.16 µM): > 10 µM | IC50 (second compound 10 µM): > 10 µM | viability, T/C [1]: 95.1% | viability, T/C [2]: 123% | viability, T/C [3]: 88.9% | viability, T/C [4]: 95.2% | viability, T/C [5]: 69.1% | viability, T/C [6]: 55.2% | viability, T/C [7]: 106% | viability, T/C [8]: 93.3% | viability, T/C [9]: 75.1% | viability, T/C [10]: 68.8% | viability, T/C [11]: 70% | viability, T/C [12]: 39.1% | viability, T/C [13]: 110% | viability, T/C [14]: 107% | viability, T/C [15]: 93.5% | viability, T/C [16]: 80.7% | viability, T/C [17]: 76.1% | viability, T/C [18]: 66.7% | viability, T/C [19]: 102% | viability, T/C [20]: 114% | viability, T/C [21]: 86.4% | viability, T/C [22]: 61.1% | viability, T/C [23]: 64.2% | viability, T/C [24]: 60.1% | viability, T/C [25]: 113% | viability, T/C [26]: 104% | viability, T/C [27]: 100% | viability, T/C [28]: 68.6% | viability, T/C [29]: 49.8% | viability, T/C [30]: 65.6% | viability, T/C [31]: 92.1% | viability, T/C [32]: 88.7% | viability, T/C [33]: 74.3% | viability, T/C [34]: 66.9% | viability, T/C [35]: 54.5% | viability, T/C [36]: 59.8%

CC1COCCN1c1cc(C2(S(C)(=N)=O)CC2)nc(-c2ccnc3[nH]ccc23)n1 (stereo not given) + Cc1cccc(N(C)C(=O)C2C(O)CCN2c2nc(C)cc(C(F)(F)F)c2C#N)c1
IC50 (second compound 0.0316 µM): 9.37 µM | IC50 (second compound 0.1 µM): > 10 µM | IC50 (second compound 0.316 µM): 8.26 µM | IC50 (second compound 1 µM): 7.19 µM | IC50 (second compound 3.16 µM): > 10 µM | IC50 (second compound 10 µM): > 10 µM | viability, T/C [1]: 97.9% | viability, T/C [2]: 106% | viability, T/C [3]: 102% | viability, T/C [4]: 98.8% | viability, T/C [5]: 83.6% | viability, T/C [6]: 47.6% | viability, T/C [7]: 97.5% | viability, T/C [8]: 96.6% | viability, T/C [9]: 101% | viability, T/C [10]: 83.6% | viability, T/C [11]: 63.5% | viability, T/C [12]: 64.7% | viability, T/C [13]: 110% | viability, T/C [14]: 107% | viability, T/C [15]: 90.8% | viability, T/C [16]: 91.6% | viability, T/C [17]: 57.9% | viability, T/C [18]: 49.1% | viability, T/C [19]: 106% | viability, T/C [20]: 104% | viability, T/C [21]: 80.3% | viability, T/C [22]: 78.9% | viability, T/C [23]: 44.7% | viability, T/C [24]: 52.7% | viability, T/C [25]: 111% | viability, T/C [26]: 109% | viability, T/C [27]: 98.5% | viability, T/C [28]: 87.3% | viability, T/C [29]: 78.3% | viability, T/C [30]: 70.8% | viability, T/C [31]: 88.3% | viability, T/C [32]: 99.8% | viability, T/C [33]: 86% | viability, T/C [34]: 92.7% | viability, T/C [35]: 68.5% | viability, T/C [36]: 63.5%

O=C(Nc1ccc(O)c(NS(=O)(=O)c2ccc(F)cc2)c1)c1ccc(-c2ccccc2)cc1 + Nc1ccc(C#CCN(C(=O)Cc2ncc(C(F)(F)F)cc2C(F)(F)F)c2ccc(F)cc2)nn1
IC50 (second compound 0.0316 µM): > 10 µM | IC50 (second compound 0.1 µM): > 10 µM | IC50 (second compound 0.316 µM): > 10 µM | IC50 (second compound 1 µM): > 10 µM | IC50 (second compound 3.16 µM): > 10 µM | IC50 (second compound 10 µM): > 10 µM | viability, T/C [1]: 106% | viability, T/C [2]: 108% | viability, T/C [3]: 106% | viability, T/C [4]: 99.1% | viability, T/C [5]: 91.3% | viability, T/C [6]: 97.7% | viability, T/C [7]: 109% | viability, T/C [8]: 91.9% | viability, T/C [9]: 96.8% | viability, T/C [10]: 105% | viability, T/C [11]: 119% | viability, T/C [12]: 87.5% | viability, T/C [13]: 104% | viability, T/C [14]: 114% | viability, T/C [15]: 106% | viability, T/C [16]: 101% | viability, T/C [17]: 107% | viability, T/C [18]: 84.6% | viability, T/C [19]: 105% | viability, T/C [20]: 105% | viability, T/C [21]: 95.2% | viability, T/C [22]: 101% | viability, T/C [23]: 102% | viability, T/C [24]: 89.8% | viability, T/C [25]: 98% | viability, T/C [26]: 97.9% | viability, T/C [27]: 114% | viability, T/C [28]: 110% | viability, T/C [29]: 102% | viability, T/C [30]: 90.9% | viability, T/C [31]: 105% | viability, T/C [32]: 101% | viability, T/C [33]: 113% | viability, T/C [34]: 103% | viability, T/C [35]: 97.4% | viability, T/C [36]: 81%

COc1cc2cc(C(=O)CCC(=O)O)sc2cc1OC + Cc1cccc(N(C)C(=O)C2C(O)CCN2c2nc(C)cc(C(F)(F)F)c2C#N)c1
IC50 (second compound 0.0316 µM): > 10 µM | IC50 (second compound 0.1 µM): > 10 µM | IC50 (second compound 0.316 µM): > 10 µM | IC50 (second compound 1 µM): > 10 µM | IC50 (second compound 3.16 µM): > 10 µM | IC50 (second compound 10 µM): > 10 µM | viability, T/C [1]: 110% | viability, T/C [2]: 102% | viability, T/C [3]: 99.3% | viability, T/C [4]: 111% | viability, T/C [5]: 98.4% | viability, T/C [6]: 88.3% | viability, T/C [7]: 98.7% | viability, T/C [8]: 120% | viability, T/C [9]: 94.7% | viability, T/C [10]: 105% | viability, T/C [11]: 99.3% | viability, T/C [12]: 93.3% | viability, T/C [13]: 105% | viability, T/C [14]: 97.7% | viability, T/C [15]: 87.5% | viability, T/C [16]: 80.8% | viability, T/C [17]: 98.6% | viability, T/C [18]: 93.6% | viability, T/C [19]: 108% | viability, T/C [20]: 90.5% | viability, T/C [21]: 105% | viability, T/C [22]: 102% | viability, T/C [23]: 101% | viability, T/C [24]: 92.8% | viability, T/C [25]: 94.5% | viability, T/C [26]: 121% | viability, T/C [27]: 90.5% | viability, T/C [28]: 96.2% | viability, T/C [29]: 115% | viability, T/C [30]: 97.8% | viability, T/C [31]: 98% | viability, T/C [32]: 104% | viability, T/C [33]: 107% | viability, T/C [34]: 105% | viability, T/C [35]: 118% | viability, T/C [36]: 87.3%
